Tests used:
[1] = biological target: Acetylcholinesterase (Electrophorus electricus, UniProt O42275); test: Inhibitory activity against AChE from electric eel
[2] = biological target: Butyrylcholinesterase (Equus caballus, UniProt Q9N1N9); test: Inhibitory activity against BuChE from horse serum
Sequence of Butyrylcholinesterase (Q9N1N9 whole entry): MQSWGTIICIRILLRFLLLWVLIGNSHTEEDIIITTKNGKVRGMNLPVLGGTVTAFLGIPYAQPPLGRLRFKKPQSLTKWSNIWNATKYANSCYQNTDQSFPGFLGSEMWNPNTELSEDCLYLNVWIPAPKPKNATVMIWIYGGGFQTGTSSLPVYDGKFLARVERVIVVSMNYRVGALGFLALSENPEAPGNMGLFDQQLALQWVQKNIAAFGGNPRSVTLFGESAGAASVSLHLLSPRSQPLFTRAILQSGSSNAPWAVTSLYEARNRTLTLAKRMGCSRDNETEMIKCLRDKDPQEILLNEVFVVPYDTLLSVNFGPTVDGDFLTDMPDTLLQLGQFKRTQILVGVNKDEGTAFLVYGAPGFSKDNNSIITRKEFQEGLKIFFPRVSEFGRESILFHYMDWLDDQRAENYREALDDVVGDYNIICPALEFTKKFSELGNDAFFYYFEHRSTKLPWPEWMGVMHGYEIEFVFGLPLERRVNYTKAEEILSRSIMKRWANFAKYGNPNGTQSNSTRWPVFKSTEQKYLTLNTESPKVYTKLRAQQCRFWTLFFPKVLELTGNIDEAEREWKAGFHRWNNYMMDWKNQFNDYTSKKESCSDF

Sequence of Acetylcholinesterase (O42275 whole entry): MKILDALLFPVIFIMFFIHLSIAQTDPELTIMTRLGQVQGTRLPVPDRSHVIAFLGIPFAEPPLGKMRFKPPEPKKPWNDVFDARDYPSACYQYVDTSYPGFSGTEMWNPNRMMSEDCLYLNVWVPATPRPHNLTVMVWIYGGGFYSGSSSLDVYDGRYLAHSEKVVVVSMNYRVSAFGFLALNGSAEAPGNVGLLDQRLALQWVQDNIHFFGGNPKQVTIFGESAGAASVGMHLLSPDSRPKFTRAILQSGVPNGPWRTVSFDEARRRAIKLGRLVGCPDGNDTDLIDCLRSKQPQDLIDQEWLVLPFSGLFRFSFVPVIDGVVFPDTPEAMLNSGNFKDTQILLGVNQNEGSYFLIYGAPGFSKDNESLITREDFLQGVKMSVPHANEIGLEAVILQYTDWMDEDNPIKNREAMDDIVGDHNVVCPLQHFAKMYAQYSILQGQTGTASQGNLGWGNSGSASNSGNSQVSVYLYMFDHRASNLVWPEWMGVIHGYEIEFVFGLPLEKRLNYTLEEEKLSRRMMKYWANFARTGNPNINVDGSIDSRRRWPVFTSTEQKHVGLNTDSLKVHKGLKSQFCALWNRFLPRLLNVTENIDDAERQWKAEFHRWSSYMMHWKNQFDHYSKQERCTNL

In the case of `CC[C@H](C[C@@H](O)[C@@H](C)[C@H]1CCC2C3CCC4=CC(=O)CC[C@]4(C)C3=CC[C@@]21C)C(C)C` (some centres undefined) [HALOXYSTEROL C], the IC50 [1] is reported as 1 µM, the Ki [1] is reported as 1.1 µM and the IC50 [2] is reported as 17.8 µM. It also gave a Ki [2] of 18 µM.

`CC[C@H](C[C@@H](O)[C@@H](C)[C@H]1CC[C@H]2[C@@H]3C[C@@H](O)[C@@]4(O)C[C@@H](O)C[C@H](O)[C@]4(C)[C@H]3CC[C@]12C)C(C)C` was tested, and the IC50 [1] was 17.2 µM, the Ki [1] was 17 µM and the IC50 [2] was 2.5 µM. The Ki [2] was 2.2 µM.

`CC[C@H](CC[C@@H](C)[C@H]1CC[C@H]2[C@@H]3CCC4=C[C@@H](O)CC[C@]4(C)[C@H]3CC[C@]12C)C(C)C` [LAWSARITOL] was tested, and the IC50 [1] was 15.2 µM, the Ki [1] was 16.1 µM and the IC50 [2] was 3.9 µM. For the same compound, the Ki [2] was 3.7 µM.

`CC[C@H](/C=C/[C@@H](C)[C@H]1CC[C@@H]2[C@]1(C)CC=C1[C@]23C=C[C@]2(C[C@@H](O)CC[C@]12C)OO3)C(C)C` was tested, and the IC50 [1] was 26.4 µM, the Ki [1] was 25.5 µM and the IC50 [2] was 6.9 µM. The Ki [2] was 5 µM.

`CCC(CC[C@@H](C)[C@H]1CC[C@H]2C3=CC(O)C4(O)C[C@@H](O)CC[C@]4(C)[C@H]3CC[C@]12C)C(C)C` (some centres undefined) was tested, and the IC50 [1] was 13.7 µM, the Ki [1] was 12.6 µM and the IC50 [2] was 2 µM. For the same compound, the Ki [2] was 2.5 µM.

Compound `CC[C@H](C[C@@H](O)[C@@H](C)[C@H]1CCC2C3CC=C4C[C@@H](O)C[C@H](O)[C@]4(C)C3CC[C@@]21C)C(C)C` (some centres undefined) [HALOXYSTEROL A] has an IC50 [1] of 8.3 µM, a Ki [1] of 7.6 µM and an IC50 [2] of 4.7 µM. It also gave a Ki [2] of 4.5 µM.

`CC[C@H](/C=C/[C@@H](C)[C@H]1CC[C@H]2[C@@H]3C=CC4C[C@@H](O)CC[C@]4(C)C3=CC[C@]12C)C(C)C` (some centres undefined) showed an IC50 [1] of 19.2 µM, a Ki [1] of 20.6 µM and an IC50 [2] of 4.5 µM. It also gave a Ki [2] of 4.6 µM.

`CCC(CC[C@@H](C)[C@H]1CC[C@H]2[C@@H]3C=CC4(O)C[C@@H](O)CC[C@]4(C)[C@H]3CC[C@]12C)C(C)C` (some centres undefined) gave a Ki [1] of 4 µM and a Ki [2] of 4.2 µM.

With `CC[C@H](C[C@@H](O)[C@@H](C)[C@H]1CCC2C3C=CC4=C[C@@H](O)C[C@H](O)[C@]4(C)C3CC[C@@]21C)C(C)C` (some centres undefined) [HALOXYSTEROL B] the IC50 [1] was 0.89 µM, the Ki [1] was 0.85 µM and the IC50 [2] was 2.3 µM. For the same compound, the Ki [2] was 2.5 µM.

— ChEMBL document CHEMBL1149406, “Isolation and cholinesterase-inhibition studies of sterols from Haloxylon recurvum” (Bioorg Med Chem Lett, 2006)
